Laboratory results reported in patent publication US10653694B2, “Cytotoxic compounds which are inhibitors of the polymerisation of tubulin” (CENTRE NATIONAL DE LA RECHERCHE SCIENTIFIQUE (CNRS), priority 2014, dated 2020).
pIC50: −log10 of the molar value. Like-named read-outs stand apart in the source and are kept apart here.

Assays:
[1] = tested on: HCT116 human cancer cell line (colorectal cancer); test: Cytotoxicity on HCT116 human cancer cell line (resazurin, 72 h); assay type: cell-based
Text: (§1) Brown oil, 89%. Rf 0.3 (Cyclohexane/EtOAc, 7/3). IR (neat, cm^−1): 1609, 1593, 1564, 1428, 1205, 1157. ^1H NMR (300 MHz, CDCl3): 8.08 (d, 1H, J=8.2 Hz), 7.90 (d, 1H, J=8.4 Hz), 7.77-7.72 (ddd, 1H, J=8.2 Hz, J=6.9 Hz, J=1.3 Hz), 7.44 (ddd, 1H, J=8.3 Hz, J=7.0 Hz, J=1.0 Hz), 6.49 (d, 2H, J=2.2 Hz), 6.27 (t, 1H, J=2.2 Hz), 4.90 (q, 1H, J=6.9 Hz), 3.73 (s, 6H), 2.91 (s, 3H), 1.78 (d, 3H, J=6.9 Hz). ^13C NMR (75 MHz, CDCl3): 171.8, 163.8, 161.0 (2C), 150.7, 146.9, 133.2, 128.5, 126.6, 124.7, 121.6, 106.2 (2C), 98.0, 55.4 (2C), 43.4, 26.9, 21.1. m/z MS (APCI^+): 309 (M+H)^+. Cytotoxicity Protocol. U87, H1299 and MDA-MB231 cells are grown in Dulbecco minimal essential medium (DMEM) containing 4.5 g/L glucose and supplemented with 10% foetal calf serum and 1% glutamine. K562 and HCT116 cells are grown in RPMI 1640 medium containing 10% foetal calf serum and 1% glutamine. All the cell lines are maintained in culture at 37° C. in a humid atmosphere containing 5% CO2. The cells are inoculated in 96-well culture plates in an amount of 5000 cells per well in 50 μL of culture medium. After 24 hours of culture, the molecule to be tested, dissolved in DMSO and diluted 1/1000 in suitable culture medium, is added in each well in an amount of 50 μL per well. After 72 hours of incubation, 20 μL of resazurin is added in each well. After 1 hour of incubation, emitted fluorescence is measured at 590 nm after excitation at 560 nm using the Victor fluorescence reader (Perkin-Elmer, USA). Each concentration is tested three times and each experiment is repeated three times. Protocol for Inhibition of Polymerisation of Tubulin. When tubulin is placed at a temperature of 0° C., it is in the form of free dimers. […] The IPT of the various synthesized analogues was determined on a soluble tubulin according to the method of Shelanski^7 from sheep brains where it constitutes 20 to 25% of soluble proteins. The “antitubulin” activity is evaluated according to the method of Gaskin^8 by measuring turbidity, which is proportional to the microtubule concentration in the suspension. Turbidity is measured by absorption of the suspension at 350 nm using a spectrophotometer fitted with a cell thermostatically-controlled at 37° C. The various samples were dissolved in DMSO and incubated 10 minutes at 37° C. then 5 minutes at 0° C. The tubulin assembly and disassembly curves are obtained by absorption kinetics at 350 nm as a function of time. The IC50 determined graphically is defined as the concentration of inhibitor necessary to decrease by 50% the maximum rate of assembly of the control tubulin. In Vitro Biological Study of Compounds of the Present Invention
The cytotoxic activity of the compounds was studied in vitro principally on the HCT116 human cancer cell line (colorectal cancer). The line selected for this study was incubated at 37° C. in the presence of one of the compounds added in the culture medium at various concentrations. The inhibitory concentration inducing the death of 50% of the cells (IC50) was determined after 72 hours of incubation (Table 1) for each compound. The set of experiments carried out made it possible to determine the degree of toxicity of the compounds tested by taking isoCA-4 as the reference. […] Lastly, when these first results are examined, it appears that the reduction of the double bond located between the two aromatic nuclei yields “reduced” type II derivatives about 10 times less cytotoxic than their precursors I as we had already noted during the reduction of isoCA-4 derivatives to isoerianin-type derivatives.

tubulin [2] = test: Inhibition of polymerisation of tubulin (IPT); assay type: biochemical, sheep; conditions: Table 3; inhibition of 50% of the maximum rate of assembly; tubulin 10 μM; read-out: IPT (IC50)
Text: as §1
The most cytotoxic compounds were selected for tests of inhibition of polymerisation of tubulin. These tests were carried out under the direction of Dr J. Dubois at Gif-sur-Yvette, France. Tubulin is purified from ewe brains according to the method of Shelanski^9 by two assembly-disassembly cycles. The stock solution (15-20 mg/mL), stored at −196° C., is thawed and diluted in assembly buffer (0.1 M MES, 0.5 mM MgCl2, 1 mM EGTA, and 1 mM GTP, pH 6.6) to have a final concentration of 10 μM. Tubulin assembly is monitored by fluorescence on 96-well plates according to the method of Barron et al.^10 Inhibitor (DMSO, 1 μL) is added to the tubulin solution (10 μM, 100 μL per well) and the solution is incubated 45 minutes at room temperature. GTP (1 mM final) is then added, the solution is mixed rapidly and fluorescence (λex=350 nm, λem=440 nm) is measured on a Wallac Victor fluorometer (Perkin Elmer). The inhibition of 50% of the maximum rate of assembly (IC50) is determined in duplicate or triplicate on 10 concentrations bracketing the IC50.

[3] = tested on: endothelial cell proliferation; conditions: inhibition of endothelial cell proliferation; cited from earlier work
tubulin [4] = conditions: binding to the colchicine site; read-out: IC50 (inhibits tubulin assembly into microtubules); cited from earlier work
many human cancer lines = conditions: read-out: IC50 (cytotoxic); cited from earlier work
[5] = tested on: H1299 (non-small-cell lung cancer); test: Cytotoxicity on H1299 line (resazurin, 72 h); assay type: cell-based; conditions: Homo sapiens, NCI-H1299
Text: as §1
(§2) Compounds I-15, I-16 and I-19 were also evaluated on a K562 chronic myeloid leukaemia line and a K562R imatinib-resistant chronic myeloid leukaemia line.

[6] = tested on: K562 (chronic myeloid leukaemia); test: Cytotoxicity on K562 line (resazurin, 72 h); assay type: cell-based; conditions: Homo sapiens
Text: as §1, §2

[7] = tested on: K562R imatinib-resistant chronic myeloid leukaemia line; test: Cytotoxicity on K562R line (72 h); assay type: cell-based; conditions: Homo sapiens, K-562R; Table 2; 50% cell death after 72 hours of incubation
Text: Brown oil, 89%. Rf 0.3 (Cyclohexane/EtOAc, 7/3). IR (neat, cm^−1): 1609, 1593, 1564, 1428, 1205, 1157. ^1H NMR (300 MHz, CDCl3): 8.08 (d, 1H, J=8.2 Hz), 7.90 (d, 1H, J=8.4 Hz), 7.77-7.72 (ddd, 1H, J=8.2 Hz, J=6.9 Hz, J=1.3 Hz), 7.44 (ddd, 1H, J=8.3 Hz, J=7.0 Hz, J=1.0 Hz), 6.49 (d, 2H, J=2.2 Hz), 6.27 (t, 1H, J=2.2 Hz), 4.90 (q, 1H, J=6.9 Hz), 3.73 (s, 6H), 2.91 (s, 3H), 1.78 (d, 3H, J=6.9 Hz). ^13C NMR (75 MHz, CDCl3): 171.8, 163.8, 161.0 (2C), 150.7, 146.9, 133.2, 128.5, 126.6, 124.7, 121.6, 106.2 (2C), 98.0, 55.4 (2C), 43.4, 26.9, 21.1. m/z MS (APCI^+): 309 (M+H)^+. Cytotoxicity Protocol. U87, H1299 and MDA-MB231 cells are grown in Dulbecco minimal essential medium (DMEM) containing 4.5 g/L glucose and supplemented with 10% foetal calf serum and 1% glutamine. K562 and HCT116 cells are grown in RPMI 1640 medium containing 10% foetal calf serum and 1% glutamine. All the cell lines are maintained in culture at 37° C. in a humid atmosphere containing 5% CO2. The cells are inoculated in 96-well culture plates in an amount of 5000 cells per well in 50 μL of culture medium. After 24 hours of culture, the molecule to be tested, dissolved in DMSO and diluted 1/1000 in suitable culture medium, is added in each well in an amount of 50 μL per well. […] After 1 hour of incubation, emitted fluorescence is measured at 590 nm after excitation at 560 nm using the Victor fluorescence reader (Perkin-Elmer, USA). […] The IPT of the various synthesized analogues was determined on a soluble tubulin according to the method of Shelanski^7 from sheep brains where it constitutes 20 to 25% of soluble proteins. The “antitubulin” activity is evaluated according to the method of Gaskin^8 by measuring turbidity, which is proportional to the microtubule concentration in the suspension. Turbidity is measured by absorption of the suspension at 350 nm using a spectrophotometer fitted with a cell thermostatically-controlled at 37° C. […]
as §2

[8] = in the presence of hepatocytes; cited from earlier work
[9] = Homo sapiens, HCT-116, 72 hours of incubation, read-out: IC50 (cytotoxicity, HCT116)
[10] = Homo sapiens, HCT-116, Table 1, concentration inducing 50% cell death after 72 hours of incubation, read-out: HCT116 IC50
[11] = Table 2, 50% cell death after 72 hours of incubation, read-out: H1299 IC50
[12] = range given jointly for K562 and H1299 lines, read-out: IC50 (cytotoxicity, H1299)
[13] = K562, Table 2, 50% cell death after 72 hours of incubation, read-out: K562 IC50
[14] = range given jointly for K562 and H1299 lines, read-out: IC50 (cytotoxicity, K562)

Row | pIC50 (tubulin [2]) | Structure (SMILES) | pIC50 [1, 9] | pIC50 [1, 10] | pIC50 [5, 11] | pIC50 [6, 13] | other results
1 | 6.00 | C=C(c1ccc(OC)c(F)c1)c1nc(C)nc2ccccc12 [Compound I-5, 4-[1-(3-Fluoro-4-methoxy-phenyl)-vinyl]-2-methyl-quinazoline] | > 7.70 | 7.74 |  |  | 
2 |  | COc1ccc(C(C)c2nc(C)nc3ccccc23)cc1OC (centres unmarked) [II-2, 4-[1-(3,4-Dimethoxy-phenyl)-ethyl]-2-methyl-quinazoline] |  | 6.02 |  |  | 
3 | 5.72 | C=C(c1ccc(OC)cc1)c1nc(Cl)nc2ccccc12 [Compound I-10, 2-Chloro-4-[1-(4-methoxy-phenyl)-vinyl]-quinazoline] | 7.40 | 7.47 | 7.60 | 7.42 | pIC50 [5, 12]: 7.42 to 7.66; pIC50 [6, 14]: 7.42 to 7.66
4 |  | COc1ccc(C(C)c2nc(C)nc3ccccc23)cc1 (centres unmarked) [II-1, 4-[1-(4-Methoxy-phenyl)-ethyl]-2-methyl-quinazoline] |  | 6.60 |  |  | 
5 | 5.74 | C=C(c1ccc(OC)cc1)c1nc(C)nc2ccccc12 [Compound I-1, 4-[1-(4-Methoxy-phenyl)-vinyl]-2-methyl-quinazoline] | 7.40 | 7.42 | 7.66 | 7.47 | pIC50 [5, 12]: 7.42 to 7.66; pIC50 [6, 14]: 7.42 to 7.66
6 | 5.92 | C=C(c1ccc(OC)c(C#CCO)c1)c1nc(C)nc2ccccc12 [Compound I-15, 3-(2-Methoxy-5-(1-(2-methylquinazolin-4-yl)vinyl)phenyl)prop-2-yn-1-ol] | > 7.70 |  |  | 8.10 | pIC50 ([1]; Homo sapiens, HCT-116, Table 2, 50% cell death after 72 hours of incubation, read-out: HCT116 IC50): 8.82; pIC50 [7]: ≥ 9.00
7 |  | C=C(c1ccc(OC)cc1)c1nc(C)cc2ccccc12 [Compound I-18, 1-(1-(4-Methoxyphenyl)vinyl)-3-methylisoquinoline] |  | 7.06 |  |  | 

Row | Structure (SMILES) | pIC50 (tubulin [2]) | pIC50 [1, 9] | pIC50 [1, 10] | pIC50 [5, 11] | pIC50 [6, 13] | other results
8 | COc1ccc(/C=C\c2cc(OC)c(OC)c(OC)c2)cc1O [CA-4, combretastatin A-4] | […] |  |  |  |  | anti-vascular activity in vitro (in words) [3]: nanomolar; pIC50 (tubulin [4]): […]; pIC50 (many human cancer lines): 8.70 to 9.00
9 | C=C(c1ccc(OC)c(O)c1)c1cc(OC)c(OC)c(OC)c1 [isoCA-4, Isocombretastatin A-4, reference compound] | 6.00 |  |  | 8.30 | 8.40 | metabolized [8]: < 10%; IC50 ([1]; Homo sapiens, HCT-116, 72 h, read-out: HCT116 IC50 (nM)): 2 nM
10 | C=C(c1ccc(OC)cc1)c1cc(C)nc2ccccc12 [Compound I-19, 4-(1-(4-Methoxyphenyl)vinyl)-2-methylquinoline] | 5.96 | > 7.70 | ≥ 9.00 |  | 7.77 | pIC50 ([1]; Table 2, 50% cell death after 72 hours of incubation, read-out: HCT116 IC50): ≥ 9.00; cytotoxic activities (in words) ([1]; cell line not given): sub-nanomolar; pIC50 [7]: 9.15
